# Experimental data reported in publication PMC12750388, “Coumarin-1,2,3-Triazole Conjugates as Molecular Scaffolds for the Selective Induction of ROS-Driven Apoptosis in Cancer Cells in the Development of Pyruvate Kinase M2 Inhibitors” (ACS Omega, 2025).
# pIC50: −log10 of the molar value.
# Experiments:
# Format in all cases: cell-based, human
# HCT116 = assay: MTT cell viability assay, HCT116
# SCC-9 cells [1] = assay: Videomicroscopy by time-lapse; conditions: SCC-9, 2 × IC50 (24.58 μM), up to 48 h
# Method: Cells were maintained in a controlled chamber containing 5% CO2 and 37 °C. Images were captured every minute and integrated using Framelapse software (Neximo Laboratories, Uttar Pradesh, India).
# SCC-9 cells [2] = assay: Cell cycle and sub-G1 analysis by flow cytometry
# Method: The interference of 7f in the cell cycle (G1, […], and G2/M) and DNA fragmentation (sub-G1) was assessed by flow cytometry analysis using a Guava Muse Cell Analyzer (Cytek Biosciences, Fremont, CA, USA). DNA staining was conducted using a pH 7.6 propidium iodide buffer composed of 3.4 mM Trizma Hydrochloride (Sigma-Aldrich Co., St. Louis, MO, USA), 10 mM NaCl (Sigma-Aldrich Co., St. Louis, MO, USA), 0.1% (v/v) NP40 (Sigma-Aldrich Co., St. Louis, MO, USA), 700 U/L RNase, and 0.075 mM propidium iodide (Sigma-Aldrich Co., St. Louis, MO, USA). An amount of 1 × 10^5 and 5 × 10^5 SCC-9 cells were seeded in six-well plates for the treatment with the negative control (DMSO) and 7f, respectively. […] Cells were then trypsinized and stained with propidium iodide buffer. DNA content was analyzed by collecting 10,000 events in the aforementioned cytometer. Data were analyzed using Flowing Software (Turku Biosciences, Turku, Finland).
compound,measurement,setting,value
"O=C1C=C(OCc2cn(CCCOc3cc(=O)oc4ccccc34)nn2)C(=O)c2ccccc21 [Compound 7f, 2-((1-(3-((2-Oxo-2H-chromen-4-yl)oxy)propyl)-1H-1,2,3-triazol-4-yl)methoxy)naphthalene-1,4-dione]",pIC50,"HCT116; HCT-116, MTT, human colon carcinoma",5.17
same,SI HCT116,HCT116; versus human gingival fibroblast,3.38
same,proliferation and morphology by video microscopy,SCC-9 cells [1],pronounced inhibition of proliferation
same,S-phase arrest versus control (DMSO),"SCC-9 cells [2]; SCC-9, 2 × IC50, 24 h",approximately twice as frequent as in the control group
same,cell cycle S population,"SCC-9 cells [2]; SCC-9, 2 × IC50, 24 h (DMSO 12.33%)",22.99%
same,cell cycle G2/M population,"SCC-9 cells [2]; SCC-9, 2 × IC50, 24 h (DMSO 22.59%)",14.45%
same,cell cycle G1 population,"SCC-9 cells [2]; SCC-9, 2 × IC50, 24 h (DMSO 64.99%)",62.31%
same,Sub-G1 population (DNA fragmentation),"SCC-9 cells [2]; SCC-9, 2 × IC50, 48 h (DMSO 5.04%)",29.84%
same,increase in the sub-G1 population,"SCC-9 cells [2]; SCC-9, 48 h, versus DMSO",5 fold
